Results reported in patent publication US6884407B1, “Methods for diagnostic imaging involving the use of a contrast agent and a coronary vasodilator” (Bristol-Myers Squibb Pharma Company, priority 1996, dated 2005).
Read-outs that look alike come from different tables or passages of the source.

Legend:
[1] = Calculated diameter of emulsified droplet to form a 10 μm vesicle (ideal gas law); format: physicochemical; conditions: for Diameter (μm) of emulsified droplet to make 10 micron vesicle: Table 2
Source text: As noted above, compositions employed herein may also include, with respect to their preparation, formation and use, gaseous precursors that can be activated to change from a liquid or solid state into a gas by temperature, pH, light, and energy (such as ultrasound). The gaseous precursors may be made into gas by storing the precursors at reduced pressure. For example, a vial stored under reduced pressure may create a headspace of perfluoropentane or perfluorohexane gas, useful for creating a preformed gas prior to injection. Preferably, the gaseous precursors may be activated by temperature. Set forth below is a table listing a series of gaseous precursors which undergo phase transitions from liquid to gaseous states at relatively close to normal body temperature (37° C.) or below, and the size of the emulsified droplets that would be required to form a vesicle of a maximum size of 10 μm.
The ideal gas law, which can be used for calculating the increase in the volume of the gas bubbles upon transitioning from liquid to gaseous states, is as follows: PV=nRT where
Thus, for stabilization of the precursor in the liquid state in a mixture wherein the precursor droplet is spherical, the volume of the precursor droplet may be determined by the equation: Volume (spherical vesicle)=4/3 πr^3 where
(B) where D is the density of the precursor. Solving for the diameter of the liquid droplet, diameter/2=[3/4π[4/3·[πrgas^3]P/RT]MWn/D]^1/3 (C) which reduces to Diameter=2[[rgas^3]P/RT[MWn/D]]^1/3.

[2] = cited from earlier work; for Boiling Point: Table 2, CRC Handbook
[3] = cited from earlier work
[4] = saturated diacyl-sn-glycero-3-phosphocholines, main chain melting transition; cited from earlier work
[5] = system: myocardium; test: Ultrasound dose range studies of myocardium echo enhancement before and after coronary vasodilator; format: in vivo; conditions: 20 Kg pig, dipyridamole 0.56 mg/Kg IV over 4 minutes with gas filled vesicles of Example 1
Protocol: This example includes a description of methods for imaging the cardiovascular region of a patient in accordance with methods within the scope of the present invention.
A 20 Kg pig is anesthetized with isoflurane and a Swan Ganz catheter is inserted to monitor hemodynamics. Dose range studies are conducted using the gas filled vesicles prepared in Example 1 to determine the minimum dose required to enhance the myocardium echo, which is defined as greater than 10 videodensitometry units as determined by repeated videodensity measurements. After the dose range studies are performed, dipyridamole is administered intravenously at a dose of 0.56 mg/Kg over a period of 4 minutes. After a 5 minute latency period, dose range studies are repeated.

[6] = Table 2, CRC Handbook, in g/mL (unit assumed)

Compound	Diameter (μm) of emulsified droplet to make 10 micron vesicle [1] [μm]	Boiling Point [2] [°C]	Density [3, 6]	Main Phase Transition Temperature [4] [°C]	other results
2-methyl 1-butene	2.5	31.2	0.6504		
CCCCCCCCCCCC(=O)OC[C@H](COP(=O)([O-])OCC[N+](C)(C)C)OC(=O)CCCCCCCCCCC [1,2-(12:0)]				−1.0	
CCCCCCCCCCCCC(=O)OC[C@H](COP(=O)([O-])OCC[N+](C)(C)C)OC(=O)CCCCCCCCCCCC [1,2-(13:0)]				13.7	
CCCCCCCCCCCCCC(=O)OC[C@H](COP(=O)([O-])OCC[N+](C)(C)C)OC(=O)CCCCCCCCCCCCC [1,2-(14:0)]				23.5	
CCCCCCCCCCCCCCC(=O)OC[C@H](COP(=O)([O-])OCC[N+](C)(C)C)OC(=O)CCCCCCCCCCCCCC [1,2-(15:0)]				34.5	
CCCCCCCCCCCCCCCC(=O)OC[C@H](COP(=O)([O-])OCC[N+](C)(C)C)OC(=O)CCCCCCCCCCCCCCC [1,2-(16:0)]				41.4	
CCCCCCCCCCCCCCCCC(=O)OC[C@H](COP(=O)([O-])OCC[N+](C)(C)C)OC(=O)CCCCCCCCCCCCCCCC [1,2-(17:0)]				48.2	
CCCCCCCCCCCCCCCCCC(=O)OC[C@H](COP(=O)([O-])OCC[N+](C)(C)C)OC(=O)CCCCCCCCCCCCCCCCC [1,2-(18:0)]				55.1	
CCCCCCCCCCCCCCCCCCC(=O)OC[C@H](COP(=O)([O-])OCC[N+](C)(C)C)OC(=O)CCCCCCCCCCCCCCCCCC [1,2-(19:0)]				61.8	
CCCCCCCCCCCCCCCCCCCC(=O)OC[C@H](COP(=O)([O-])OCC[N+](C)(C)C)OC(=O)CCCCCCCCCCCCCCCCCCC [1,2-(20:0)]				64.5	
CCCCCCCCCCCCCCCCCCCCC(=O)OC[C@H](COP(=O)([O-])OCC[N+](C)(C)C)OC(=O)CCCCCCCCCCCCCCCCCCCC [1,2-(21:0)]				71.1	
CCCCCCCCCCCCCCCCCCCCCC(=O)OC[C@H](COP(=O)([O-])OCC[N+](C)(C)C)OC(=O)CCCCCCCCCCCCCCCCCCCCC [1,2-(22:0)]				74.0	
CCCCCCCCCCCCCCCCCCCCCCC(=O)OCC(COP(=O)([O-])OCC[N+](C)(C)C)OC(=O)CCCCCCCCCCCCCCCCCCCCCC (stereo not shown) [1,2-(23:0)]				79.5	
CCCCCCCCCCCCCCCCCCCCCCCC(=O)OCC(COP(=O)([O-])OCC[N+](C)(C)C)OC(=O)CCCCCCCCCCCCCCCCCCCCCCC (stereo not shown) [1,2-(24:0)]				80.1	
C#CC(=C)C [1-butene-3-yne-2-methyl]	2.4	34.0	0.6801		
CCCCF [1-fluorobutane]	1.2	32.5	0.6779		diameter of emulsion droplets to make a gaseous precursor filled vesicle with an upper limit of 10 μm ([1]; equation (C), 37° C., 1 atmosphere): 0.0544 μm; liquid/gas phase transition temperature (boiling point) [2]: 32.5 °C; Density ([3]; at 20° C.): 0.7789 g/mL
CCC(C)C [2-methyl butane (isopentane), 2-methyl butane]	2.6		0.6201		
CC=C(C)C [2-methyl-2-butene]	2.5	38.6	0.6623		
C#CC(C)C [3-methyl-1-butyne]	2.5	29.5	0.6660		
FC(F)(F)C(F)(F)C(F)(F)C(F)(F)F [decafluoro butane, perfluorobutane]	3.0	−2	1.517		liquid/gas phase transition temperature (boiling point) [2]: 4 °C
OCCN(CCO)c1nc(N2CCCCC2)c2nc(N(CCO)CCO)nc(N3CCCCC3)c2n1 [dipyridamole]					diagnostic artifacts [5]: substantially eliminated; dosage of contrast agent required to obtain a medically useful diagnostic image of the cardiovascular region ([5]; after vs before dipyridamole): significantly smaller dosage
FC(F)(F)C(F)(F)F [hexafluoro ethane]	2.7		1.607		
FC1(F)C(F)(F)C(F)(F)C1(F)F [octafluoro cyclobutane, octafluorocyclobutane]	2.8	−5.8	1.48		
FC(F)(F)C(F)(F)C(F)(F)C(F)(F)C(F)(F)F [perfluoro pentane, perfluoropentane]	2.9	29.5	1.7326		liquid/gas phase transition temperature (boiling point) [2]: 29.5 °C
FC(F)(F)C(F)(F)C(F)(F)C(F)(F)C(F)(F)C(F)(F)F [perfluorohexane]					liquid/gas phase transition temperature (boiling point) [2]: 57 °C
